In patent US10189809B2, “SGC stimulators” (Ironwood Pharmaceuticals, Inc., priority 2010, dated 2019):
Where two headings read alike, the source gives them in different places.

What was measured:
Thoracic aortic rings = test: Alternative thoracic aortic rings assay (Example 19b; resting tension as 100% inhibition); set-up: species or system rat; details: Rattus norvegicus, Table 10A
Procedure, shortened: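 Aortic rings (~2 mm) from male Sprague-Dawley rats (275-299 g) held at 1.0 g resting tension in Krebs-Henseleit at 37 °C under 95% O2/5% CO2, then precontracted with 100 ng/mL phenylephrine. Compounds in DMSO added cumulatively; relaxation recorded by force transducer and EC50 taken from concentration-response curves.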

[1] = target: T1, Human soluble guanylate cyclase enzyme (hsGC) (Homo sapiens (Human), UniProt Q02108+Q02153); test: Purified human sGC enzyme activity assay; format: biochemical; details: for sGC Enzyme (fold increase at 30 μM) / sGC Enzyme (specific activity at 30 μM) / sGC Enzyme (fold increase at 30 μM without SNP): 30 μM compound; for sGC Enzyme (fold increase at 30 μM): without the addition of SNP; for sGC Enzyme (specific activity at 10 μM) / sGC Enzyme (fold increase at 10 μM without SNP): 10 μM compound
Procedure, shortened: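 Purified human sGC (5 ng) incubated 30 min at 37° C with compound at 10 or 30 μM final in pH 8.0 Tris with 300 μM GTP, 2 mM MgCl2, 2 mM DTT and 1 mM IBMX, then stopped with cold methanol. cGMP quantified against a standard curve. Specific activity (nmol cGMP/mg sGC/min) expressed as fold-change over DMSO control.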

[2] = target: T1, Human soluble guanylate cyclase enzyme (hsGC); test: Purified human sGC enzyme synergy assay in the presence of 1 μM sodium nitroprusside (SNP); format: biochemical; details: for sGC Enzyme (fold increase at 30 μM with SNP): 30 μM compound; for sGC Enzyme (fold increase at 10 μM with SNP): 10 μM compound
Procedure, shortened: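 Purified human sGC (5 ng) incubated 30 min at 37 °C with compounds at 10 or 30 μM, 1 μM sodium nitroprusside, 300 μM GTP and 1 mM IBMX in Tris pH 8.0 with MgCl2/DTT. cGMP quantified against a standard curve, and specific activity expressed as fold-change over DMSO control.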

[3] = target: soluble guanylate cyclase (sGC) (Homo sapiens (Human), UniProt Q02108+Q02153); test: sGC-HEK-cGMP assay run with SNP incubation (HEK WC assay); format: cell-based
Procedure, shortened: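 HEK293 cells with endogenous sGC were pretreated with 0.5 mM IBMX for 15 min at 37 °C, then exposed to test compound plus sodium nitroprusside for 10 min at 37 °C.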

[4] = read-out: HEK WC Assay (% Emax at 10 uM/with 10 uM SNP)
[5] = read-out: HEK WC Assay (% Emax at 30 uM/with 10 uM SNP)
[6] = read-out: HEK WC Assay (% Emax at 10 μM/with 10 uM SNP)
[7] = read-out: HEK WC Assay (% Emax at 30 μM/with 10 uM SNP)

T1 sequence (Q02153 whole entry): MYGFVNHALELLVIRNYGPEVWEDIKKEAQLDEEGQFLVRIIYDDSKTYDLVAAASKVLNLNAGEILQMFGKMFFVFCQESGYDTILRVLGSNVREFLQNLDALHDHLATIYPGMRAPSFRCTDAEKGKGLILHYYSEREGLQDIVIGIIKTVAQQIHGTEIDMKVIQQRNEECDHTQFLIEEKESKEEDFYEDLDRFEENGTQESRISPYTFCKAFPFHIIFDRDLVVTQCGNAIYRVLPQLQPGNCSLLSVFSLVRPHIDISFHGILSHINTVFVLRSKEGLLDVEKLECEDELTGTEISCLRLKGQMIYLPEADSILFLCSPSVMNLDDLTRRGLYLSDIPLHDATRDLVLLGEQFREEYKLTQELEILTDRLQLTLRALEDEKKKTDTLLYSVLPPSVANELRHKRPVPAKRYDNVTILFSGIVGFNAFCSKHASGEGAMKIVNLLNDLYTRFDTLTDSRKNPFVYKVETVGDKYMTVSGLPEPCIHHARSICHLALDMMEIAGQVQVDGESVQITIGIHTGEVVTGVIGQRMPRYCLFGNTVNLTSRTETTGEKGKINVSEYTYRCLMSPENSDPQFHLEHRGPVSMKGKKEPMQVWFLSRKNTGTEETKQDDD
T1 sequence (Q02108 whole entry): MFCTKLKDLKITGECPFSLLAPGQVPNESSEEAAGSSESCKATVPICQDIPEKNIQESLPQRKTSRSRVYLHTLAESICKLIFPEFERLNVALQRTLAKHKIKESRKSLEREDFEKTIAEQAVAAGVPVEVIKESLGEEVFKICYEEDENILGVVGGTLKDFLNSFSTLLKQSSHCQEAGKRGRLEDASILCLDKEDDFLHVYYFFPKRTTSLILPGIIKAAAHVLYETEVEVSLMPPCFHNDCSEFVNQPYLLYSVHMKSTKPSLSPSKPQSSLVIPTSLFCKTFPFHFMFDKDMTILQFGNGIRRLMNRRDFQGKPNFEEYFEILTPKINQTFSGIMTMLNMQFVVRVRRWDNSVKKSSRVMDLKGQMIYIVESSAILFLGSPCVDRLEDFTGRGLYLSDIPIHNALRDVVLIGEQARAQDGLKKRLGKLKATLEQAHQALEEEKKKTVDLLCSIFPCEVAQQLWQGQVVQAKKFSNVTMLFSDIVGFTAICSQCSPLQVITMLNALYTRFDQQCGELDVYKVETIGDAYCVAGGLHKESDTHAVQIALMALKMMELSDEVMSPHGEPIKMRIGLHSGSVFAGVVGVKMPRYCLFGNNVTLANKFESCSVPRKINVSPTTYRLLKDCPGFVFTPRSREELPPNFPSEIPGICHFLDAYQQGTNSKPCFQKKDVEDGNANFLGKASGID
Sequence of soluble guanylate cyclase (sGC) (Q02153 whole entry): as the sequence (Q02153 whole entry) above
Sequence of soluble guanylate cyclase (sGC) (Q02108 whole entry): as the sequence (Q02108 whole entry) above

Structure (SMILES)	inhibition at 1 µM (Thoracic aortic rings; 1 μM, read-out: Percent Relaxation at 1 μM)	inhibition at 3 µM (Thoracic aortic rings; 3 μM, read-out: Percent Relaxation at 3 μM)	inhibition at 10 µM (Thoracic aortic rings; 10 μM, read-out: Percent Relaxation at 10 μM)	EC50 (Thoracic aortic rings; read-out: Aortic Ring EC50)	sGC Enzyme (fold increase at 30 μM) [1]	sGC Enzyme (fold increase at 30 μM with SNP) ([2]; with the addition of SNP)	Emax at 10 µM [3, 4]	Emax at 30 µM [3, 5]	sGC Enzyme (specific activity at 10 μM) [1]	sGC Enzyme (fold increase at 10 μM without SNP) [1]	sGC Enzyme (specific activity at 30 μM) [1]	sGC Enzyme (fold increase at 30 μM without SNP) [1]	sGC Enzyme (fold increase at 10 μM with SNP) ([2]; with 1 μM SNP)	sGC Enzyme (fold increase at 30 μM with SNP) ([2]; with 1 μM SNP)	Emax at 10 µM [3, 6]	Emax at 30 µM [3, 7]
COC(=O)Nc1c(N)nc(-c2cc(-c3ccccc3)n(Cc3ccccc3F)n2)nc1N [Compound I-83]	10 to 20%	20 to 40%	60 to 80%	4 to 8 µM	D (D = 10 to <30 fold increase)	C (C = 5 to <10 fold increase)										
Cc1ccc(-c2c(Br)c(-c3ncccn3)nn2Cc2ccccc2F)cc1 [Compound I-58]							0 to 10%	0 to 10%	B (B = 50 to <100)	A (A = no increase to <2 fold increase)	B (B = 50 to <100)	B (B = 2 to <5 fold increase)	B (B = 2 to <5 fold increase)	B (B = 2 to <5 fold increase)		
Cc1ccc(-c2cc(-c3ccccn3)nn2Cc2ccccc2F)cc1 [Compound I-23]							0 to 10%	0 to 10%	C (C = 100 to <200)	B (B = 2 to <5 fold increase)	D (D = 200 to <500)	B (B = 2 to <5 fold increase)	B (B = 2 to <5 fold increase)	B (B = 2 to <5 fold increase)		
Cc1ccc(-c2cc(-c3ncccn3)nn2Cc2ccccc2F)cc1 [Compound I-65]							0 to 10%	0 to 10%	B (B = 50 to <100)	B (B = 2 to <5 fold increase)	C (C = 100 to <200)	B (B = 2 to <5 fold increase)	B (B = 2 to <5 fold increase)	C (C = 5 to <10 fold increase)		
Nc1nc(-c2cc(-c3ccon3)n(Cc3ccccc3F)n2)ncc1C1CC1 [Compound I-104]					B (B = 2 to <5 fold increase)	C (C = 5 to <10 fold increase)									40 to 60%	> 120%
CC(=O)Nc1c(N)nc(-c2cc(-c3nccs3)n(Cc3ccccc3F)n2)nc1N [Compound I-94]					A (A = no increase to <2 fold increase)	B (B = 2 to <5 fold increase)									0 to 10%	0 to 10%
Fc1ccccc1Cn1nc(-c2ncccn2)cc1-c1ccc(Cl)s1 [Compound I-91]					B (B = 2 to <5 fold increase)	C (C = 5 to <10 fold increase)									0 to 10%	10 to 20%
Fc1ccccc1Cn1nc(-c2ccccn2)c(I)c1-c1ccccn1 [Compound I-53]							0 to 10%	0 to 10%		A (A = no increase to <2 fold increase)		A (A = no increase to <2 fold increase)	A (A = no increase to <2 fold increase)	A (A = no increase to <2 fold increase)		
Nc1nc(-c2cc(-c3ccon3)n(Cc3ccccc3F)n2)ncc1-c1nccs1 [Compound I-108]					A (A = no increase to <2 fold increase)	B (B = 2 to <5 fold increase)									20 to 40%	20 to 40%
COc1ccc(-c2cc(-c3ncccn3)nn2Cc2ccccc2F)cc1 [Compound I-60]							0 to 10%	0 to 10%	B (B = 50 to <100)	A (A = no increase to <2 fold increase)	C (C = 100 to <200)	B (B = 2 to <5 fold increase)	A (A = no increase to <2 fold increase)	A (A = no increase to <2 fold increase)		
Fc1ccccc1Cn1nc(-c2ccccn2)c(Cl)c1-c1ccccn1 [Compound I-63]							0 to 10%	0 to 10%	B (B = 50 to <100)	A (A = no increase to <2 fold increase)	B (B = 50 to <100)	A (A = no increase to <2 fold increase)	A (A = no increase to <2 fold increase)	A (A = no increase to <2 fold increase)		
Nc1nc(-c2cc(-c3ccon3)n(Cc3ccccc3F)n2)ncc1-c1ccccn1 [Compound I-128]					B (B = 2 to <5 fold increase)	C (C = 5 to <10 fold increase)									60 to 80%	40 to 60%
Cc1nnc(-c2cc(-c3ccccn3)nn2Cc2ccccc2F)o1 [Compound I-46]							0 to 10%	0 to 10%	C (C = 100 to <200)	A (A = no increase to <2 fold increase)	D (D = 200 to <500)	A (A = no increase to <2 fold increase)	A (A = no increase to <2 fold increase)	A (A = no increase to <2 fold increase)		
Cn1c(=O)[nH]c2nc(-c3cc(-c4ncco4)n(Cc4ccccc4F)n3)nc(N)c21 [Compound I-101, 6-amino-2-(1-(2-fluorobenzyl)-5-(oxazol-2-yl)-1H-pyrazol-3-yl)-7-methyl-7H-purin-8(9H)-one]					B (B = 2 to <5 fold increase)	D (D = 10 to <30 fold increase)									60 to 80%	20 to 40%
COc1cccc(-c2cc(-c3ccccn3)nn2Cc2ccccc2F)n1 [Compound I-25, 2-(1-(2-fluorobenzyl)-3-(pyridin-2-yl)-1H-pyrazol-5-yl)-6-methoxypyridine]							0 to 10%	10 to 20%	C (C = 100 to <200)	A (A = no increase to <2 fold increase)	D (D = 200 to <500)	A (A = no increase to <2 fold increase)	B (B = 2 to <5 fold increase)	C (C = 5 to <10 fold increase)		
Fc1ccccc1Cn1nc(-c2ccccn2)cc1-c1ccc(Br)cn1 [Compound I-51, 5-bromo-2-(1-(2-fluorobenzyl)-3-(pyridin-2-yl)-1H-pyrazol-5-yl)pyridine]							0 to 10%	0 to 10%		A (A = no increase to <2 fold increase)		A (A = no increase to <2 fold increase)	A (A = no increase to <2 fold increase)	A (A = no increase to <2 fold increase)		
Cc1ccc(-c2c(C#N)c(-c3ncccn3)nn2Cc2ccccc2F)cc1 [Compound I-69, 1-(2-fluorobenzyl)-3-(pyrimidin-2-yl)-5-p-tolyl-1H-pyrazole-4-carbonitrile]							0 to 10%	0 to 10%		A (A = no increase to <2 fold increase)		A (A = no increase to <2 fold increase)	A (A = no increase to <2 fold increase)	A (A = no increase to <2 fold increase)		
CC(C)(O)c1cnc(-c2cc(-c3ccon3)n(Cc3ccccc3F)n2)nc1O [Compound I-133]					A (A = no increase to <2 fold increase)	B (B = 2 to <5 fold increase)									20 to 40%	40 to 60%
Cc1cccc(-c2cc(-c3ncccn3)nn2Cc2ccccc2F)n1 [Compound I-70, 2-(1-(2-fluorobenzyl)-5-(6-methylpyridin-2-yl)-1H-pyrazol-3-yl)pyrimidine]					A (A = no increase to <2 fold increase)	A (A = no increase to <2 fold increase)									0 to 10%	0 to 10%
